ChEMBL document CHEMBL1909046, “DrugMatrix in vitro pharmacology data”
pIC50, pKi: −log10 of the molar value.

Tested on: not listed separately
Assay: DRUGMATRIX: beta-Lactamase enzyme inhibition (substrate: Nitrocefin)
Parameters: species or system Bacillus cereus
Settings: Not Active = under 50% inhibition at 10 µM

Compound | IC50 | Ki
Cc1ncc([N+](=O)[O-])n1CCO [METRONIDAZOLE] | Not Active | Not Active
CC(C)(C(=O)c1cccnc1)c1cccnc1 [METYRAPONE] | Not Active | Not Active
Oc1ccc(OCc2ccccc2)cc1 [MONOBENZONE] | Not Active | Not Active
CC(C)(Oc1ccc(C2CCCc3ccccc32)cc1)C(=O)O (stereo unspecified) [NAFENOPIN] | Not Active | Not Active
COc1ccc2cc([C@H](C)C(=O)O)ccc2c1 [NAPROXEN] | Not Active | Not Active
CC(C)[C@H]1CC[C@H](C(=O)N[C@H](Cc2ccccc2)C(=O)O)CC1 [NATEGLINIDE] | Not Active | Not Active
CCN[C@@H]1C[C@H](N)[C@@H](O[C@H]2OC(CN)=CC[C@H]2N)[C@H](O)[C@H]1O[C@H]1OC[C@](C)(O)[C@H](NC)[C@H]1O [NETILMICIN] | Not Active | Not Active
COC(=O)C1=C(C)NC(C)=C(C(=O)OCC(C)C)C1c1ccccc1[N+](=O)[O-] (stereo unspecified) [NISOLDIPINE] | Not Active | Not Active
CCOC(=O)C1=C(C)NC(C)=C(C(=O)OC)C1c1cccc([N+](=O)[O-])c1 (stereo unspecified) [NITRENDIPINE] | Not Active | Not Active

Target: T1, Vasoactive intestinal polypeptide receptor 1 (Homo sapiens, UniProt P32241); note: in other assays of this panel Not Active means under 50% inhibition at 10 µM
T1 sequence (P32241 whole entry): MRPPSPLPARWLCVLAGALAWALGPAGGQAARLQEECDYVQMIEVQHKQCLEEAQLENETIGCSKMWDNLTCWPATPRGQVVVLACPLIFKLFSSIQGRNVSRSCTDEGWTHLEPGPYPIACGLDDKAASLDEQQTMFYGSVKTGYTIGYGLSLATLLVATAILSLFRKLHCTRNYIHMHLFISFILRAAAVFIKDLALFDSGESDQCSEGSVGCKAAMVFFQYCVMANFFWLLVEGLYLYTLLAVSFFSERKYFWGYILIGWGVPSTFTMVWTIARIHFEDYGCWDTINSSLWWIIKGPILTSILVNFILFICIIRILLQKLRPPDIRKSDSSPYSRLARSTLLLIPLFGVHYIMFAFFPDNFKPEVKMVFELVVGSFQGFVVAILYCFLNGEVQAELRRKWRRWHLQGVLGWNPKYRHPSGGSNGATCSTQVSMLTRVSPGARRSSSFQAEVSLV
Type: cell membranes, Membrane
Settings: ht-29

Compound | IC50
Cc1ncc([N+](=O)[O-])n1CCO [METRONIDAZOLE] | Not Active
CC(C)(C(=O)c1cccnc1)c1cccnc1 [METYRAPONE] | Not Active
Oc1ccc(OCc2ccccc2)cc1 [MONOBENZONE] | Not Active
CC(C)(Oc1ccc(C2CCCc3ccccc32)cc1)C(=O)O (stereo unspecified) [NAFENOPIN] | Not Active
COc1ccc2cc([C@H](C)C(=O)O)ccc2c1 [NAPROXEN] | Not Active
CC(C)[C@H]1CC[C@H](C(=O)N[C@H](Cc2ccccc2)C(=O)O)CC1 [NATEGLINIDE] | Not Active
CCN[C@@H]1C[C@H](N)[C@@H](O[C@H]2OC(CN)=CC[C@H]2N)[C@H](O)[C@H]1O[C@H]1OC[C@](C)(O)[C@H](NC)[C@H]1O [NETILMICIN] | Not Active
COC(=O)C1=C(C)NC(C)=C(C(=O)OCC(C)C)C1c1ccccc1[N+](=O)[O-] (stereo unspecified) [NISOLDIPINE] | Not Active
CCOC(=O)C1=C(C)NC(C)=C(C(=O)OC)C1c1cccc([N+](=O)[O-])c1 (stereo unspecified) [NITRENDIPINE] | Not Active

Tested on: not listed separately
Assay: DRUGMATRIX: Calcium Channel Type L, Phenylalkylamine radioligand binding (ligand: [3H] (-)-Desmethoxyverapamil (D-888))
Type: cell membranes, Rattus norvegicus, Wistar, Brain, Membrane
Settings: Not Active = under 50% inhibition at 10 µM

Compound | IC50 | Ki
Cc1ncc([N+](=O)[O-])n1CCO [METRONIDAZOLE] | Not Active | Not Active
CC(C)(C(=O)c1cccnc1)c1cccnc1 [METYRAPONE] | Not Active | Not Active
Oc1ccc(OCc2ccccc2)cc1 [MONOBENZONE] | Not Active | Not Active
CC(C)(Oc1ccc(C2CCCc3ccccc32)cc1)C(=O)O (stereo unspecified) [NAFENOPIN] | Not Active | Not Active
COc1ccc2cc([C@H](C)C(=O)O)ccc2c1 [NAPROXEN] | Not Active | Not Active
CC(C)[C@H]1CC[C@H](C(=O)N[C@H](Cc2ccccc2)C(=O)O)CC1 [NATEGLINIDE] | Not Active | Not Active
CCN[C@@H]1C[C@H](N)[C@@H](O[C@H]2OC(CN)=CC[C@H]2N)[C@H](O)[C@H]1O[C@H]1OC[C@](C)(O)[C@H](NC)[C@H]1O [NETILMICIN] | Not Active | Not Active
COC(=O)C1=C(C)NC(C)=C(C(=O)OCC(C)C)C1c1ccccc1[N+](=O)[O-] (stereo unspecified) [NISOLDIPINE] | Not Active | Not Active
CCOC(=O)C1=C(C)NC(C)=C(C(=O)OC)C1c1cccc([N+](=O)[O-])c1 (stereo unspecified) [NITRENDIPINE] | Not Active | Not Active

Target: T2, Adenosine receptor A3 (Homo sapiens, UniProt P0DMS8);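 note: radioligand binding assay with AB-MECA serving as the labeled ligand; in other assays of this panel Not Active means under 50% inhibition at 10 µM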
T2 sequence (P0DMS8 whole entry): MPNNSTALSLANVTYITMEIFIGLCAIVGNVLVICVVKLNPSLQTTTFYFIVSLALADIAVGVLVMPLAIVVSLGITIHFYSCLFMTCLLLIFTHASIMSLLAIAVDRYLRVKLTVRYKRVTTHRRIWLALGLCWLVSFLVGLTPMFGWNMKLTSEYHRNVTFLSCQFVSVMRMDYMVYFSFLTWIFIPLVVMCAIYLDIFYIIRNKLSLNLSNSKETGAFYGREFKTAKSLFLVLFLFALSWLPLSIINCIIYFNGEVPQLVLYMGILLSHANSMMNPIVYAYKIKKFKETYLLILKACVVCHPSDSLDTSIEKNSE
Type: cell membranes, CHO-K1, Membrane
Settings: cho-k1

Compound | IC50
Cc1ncc([N+](=O)[O-])n1CCO [METRONIDAZOLE] | Not Active
CC(C)(C(=O)c1cccnc1)c1cccnc1 [METYRAPONE] | Not Active
Oc1ccc(OCc2ccccc2)cc1 [MONOBENZONE] | Not Active
CC(C)(Oc1ccc(C2CCCc3ccccc32)cc1)C(=O)O (stereo unspecified) [NAFENOPIN] | Not Active
COc1ccc2cc([C@H](C)C(=O)O)ccc2c1 [NAPROXEN] | Not Active
CC(C)[C@H]1CC[C@H](C(=O)N[C@H](Cc2ccccc2)C(=O)O)CC1 [NATEGLINIDE] | Not Active
CCN[C@@H]1C[C@H](N)[C@@H](O[C@H]2OC(CN)=CC[C@H]2N)[C@H](O)[C@H]1O[C@H]1OC[C@](C)(O)[C@H](NC)[C@H]1O [NETILMICIN] | Not Active
CCOC(=O)C1=C(C)NC(C)=C(C(=O)OC)C1c1cccc([N+](=O)[O-])c1 (stereo unspecified) [NITRENDIPINE] | Not Active

Same assay, conditions: read-out: IC50

Compound | pIC50
COC(=O)C1=C(C)NC(C)=C(C(=O)OCC(C)C)C1c1ccccc1[N+](=O)[O-] (stereo unspecified) [NISOLDIPINE] | 5.15

Same assay, conditions: read-out: Ki

Compound | pKi
COC(=O)C1=C(C)NC(C)=C(C(=O)OCC(C)C)C1c1ccccc1[N+](=O)[O-] (stereo unspecified) [NISOLDIPINE] | 5.40

Target: Sodium-dependent dopamine transporter (Homo sapiens, UniProt Q01959)
Assay: DRUGMATRIX: Dopamine Transporter radioligand binding (ligand: [125I] RTI-55)
Type: cell membranes, CHO-K1, Membrane
Settings: cho-k1; Not Active = under 50% inhibition at 10 µM

Chain of Sodium-dependent dopamine transporter (Q01959 whole entry): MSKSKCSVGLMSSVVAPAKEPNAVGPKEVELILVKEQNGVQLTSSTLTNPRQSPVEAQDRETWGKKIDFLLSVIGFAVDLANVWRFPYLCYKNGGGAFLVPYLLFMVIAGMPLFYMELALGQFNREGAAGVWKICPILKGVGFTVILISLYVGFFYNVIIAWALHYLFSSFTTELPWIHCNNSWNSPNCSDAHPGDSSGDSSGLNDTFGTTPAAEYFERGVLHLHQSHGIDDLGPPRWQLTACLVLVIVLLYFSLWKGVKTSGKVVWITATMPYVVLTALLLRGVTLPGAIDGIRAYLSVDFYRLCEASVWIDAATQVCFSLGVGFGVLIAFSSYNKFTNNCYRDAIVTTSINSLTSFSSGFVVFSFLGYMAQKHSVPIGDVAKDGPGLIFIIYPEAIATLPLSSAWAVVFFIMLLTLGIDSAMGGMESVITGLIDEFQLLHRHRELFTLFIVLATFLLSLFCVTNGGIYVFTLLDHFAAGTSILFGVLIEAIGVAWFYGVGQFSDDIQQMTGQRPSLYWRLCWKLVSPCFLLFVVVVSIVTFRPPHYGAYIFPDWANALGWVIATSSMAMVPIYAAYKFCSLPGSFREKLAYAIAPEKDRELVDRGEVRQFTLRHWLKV

Compound | IC50
Cc1ncc([N+](=O)[O-])n1CCO [METRONIDAZOLE] | Not Active
CC(C)(C(=O)c1cccnc1)c1cccnc1 [METYRAPONE] | Not Active
Oc1ccc(OCc2ccccc2)cc1 [MONOBENZONE] | Not Active
CC(C)(Oc1ccc(C2CCCc3ccccc32)cc1)C(=O)O (stereo unspecified) [NAFENOPIN] | Not Active
COc1ccc2cc([C@H](C)C(=O)O)ccc2c1 [NAPROXEN] | Not Active
CC(C)[C@H]1CC[C@H](C(=O)N[C@H](Cc2ccccc2)C(=O)O)CC1 [NATEGLINIDE] | Not Active
CCN[C@@H]1C[C@H](N)[C@@H](O[C@H]2OC(CN)=CC[C@H]2N)[C@H](O)[C@H]1O[C@H]1OC[C@](C)(O)[C@H](NC)[C@H]1O [NETILMICIN] | Not Active
COC(=O)C1=C(C)NC(C)=C(C(=O)OCC(C)C)C1c1ccccc1[N+](=O)[O-] (stereo unspecified) [NISOLDIPINE] | Not Active
CCOC(=O)C1=C(C)NC(C)=C(C(=O)OC)C1c1cccc([N+](=O)[O-])c1 (stereo unspecified) [NITRENDIPINE] | Not Active

Tested on: not listed separately
Assay: DRUGMATRIX: Nicotinic Acetylcholine radioligand binding (ligand: [125I] Epibatidine)
Type: cell membranes, Membrane
Settings: imr-32; Not Active = under 50% inhibition at 10 µM

Compound | IC50 | Ki
Cc1ncc([N+](=O)[O-])n1CCO [METRONIDAZOLE] | Not Active | Not Active
CC(C)(C(=O)c1cccnc1)c1cccnc1 [METYRAPONE] | Not Active | Not Active
Oc1ccc(OCc2ccccc2)cc1 [MONOBENZONE] | Not Active | Not Active
CC(C)(Oc1ccc(C2CCCc3ccccc32)cc1)C(=O)O (stereo unspecified) [NAFENOPIN] | Not Active | Not Active
COc1ccc2cc([C@H](C)C(=O)O)ccc2c1 [NAPROXEN] | Not Active | Not Active
CC(C)[C@H]1CC[C@H](C(=O)N[C@H](Cc2ccccc2)C(=O)O)CC1 [NATEGLINIDE] | Not Active | Not Active
CCN[C@@H]1C[C@H](N)[C@@H](O[C@H]2OC(CN)=CC[C@H]2N)[C@H](O)[C@H]1O[C@H]1OC[C@](C)(O)[C@H](NC)[C@H]1O [NETILMICIN] | Not Active | Not Active
COC(=O)C1=C(C)NC(C)=C(C(=O)OCC(C)C)C1c1ccccc1[N+](=O)[O-] (stereo unspecified) [NISOLDIPINE] | Not Active | Not Active
CCOC(=O)C1=C(C)NC(C)=C(C(=O)OC)C1c1cccc([N+](=O)[O-])c1 (stereo unspecified) [NITRENDIPINE] | Not Active | Not Active

Target: Melanocortin receptor 3 (Homo sapiens, UniProt P41968); note: in other assays of this panel Not Active means under 50% inhibition at 10 µM
Type: cell membranes, Membrane
Settings: hek293

Chain of Melanocortin receptor 3 (P41968 whole entry): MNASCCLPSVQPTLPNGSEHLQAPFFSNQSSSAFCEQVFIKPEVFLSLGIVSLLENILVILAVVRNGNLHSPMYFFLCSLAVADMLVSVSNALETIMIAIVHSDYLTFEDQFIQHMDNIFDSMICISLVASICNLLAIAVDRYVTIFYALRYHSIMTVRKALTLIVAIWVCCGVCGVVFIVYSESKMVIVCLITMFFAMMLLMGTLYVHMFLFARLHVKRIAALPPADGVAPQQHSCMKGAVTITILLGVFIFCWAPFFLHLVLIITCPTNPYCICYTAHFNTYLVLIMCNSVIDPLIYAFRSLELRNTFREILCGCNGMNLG

Compound | IC50
Cc1ncc([N+](=O)[O-])n1CCO [METRONIDAZOLE] | Not Active
CC(C)(C(=O)c1cccnc1)c1cccnc1 [METYRAPONE] | Not Active
Oc1ccc(OCc2ccccc2)cc1 [MONOBENZONE] | Not Active
CC(C)(Oc1ccc(C2CCCc3ccccc32)cc1)C(=O)O (stereo unspecified) [NAFENOPIN] | Not Active
COc1ccc2cc([C@H](C)C(=O)O)ccc2c1 [NAPROXEN] | Not Active
CC(C)[C@H]1CC[C@H](C(=O)N[C@H](Cc2ccccc2)C(=O)O)CC1 [NATEGLINIDE] | Not Active
CCN[C@@H]1C[C@H](N)[C@@H](O[C@H]2OC(CN)=CC[C@H]2N)[C@H](O)[C@H]1O[C@H]1OC[C@](C)(O)[C@H](NC)[C@H]1O [NETILMICIN] | Not Active
COC(=O)C1=C(C)NC(C)=C(C(=O)OCC(C)C)C1c1ccccc1[N+](=O)[O-] (stereo unspecified) [NISOLDIPINE] | Not Active
CCOC(=O)C1=C(C)NC(C)=C(C(=O)OC)C1c1cccc([N+](=O)[O-])c1 (stereo unspecified) [NITRENDIPINE] | Not Active
